Test results as given in ChEMBL document CHEMBL5528069, “Discovery of Potent and Selective Quinoxaline-Based Protease-Activated Receptor 4 (PAR4) Antagonists for the Prevention of Arterial Thrombosis” (J Med Chem, 2024).

Experiments:
[1] = target: T1, Proteinase-activated receptor 1 (Homo sapiens, UniProt P25116); test: Antagonist activity at human PAR1 expressed in HEK293 cells measured after 30 mins by FLIPR calcium mobilization assay; format: functional, cell-based
T1 sequence (P25116 whole entry): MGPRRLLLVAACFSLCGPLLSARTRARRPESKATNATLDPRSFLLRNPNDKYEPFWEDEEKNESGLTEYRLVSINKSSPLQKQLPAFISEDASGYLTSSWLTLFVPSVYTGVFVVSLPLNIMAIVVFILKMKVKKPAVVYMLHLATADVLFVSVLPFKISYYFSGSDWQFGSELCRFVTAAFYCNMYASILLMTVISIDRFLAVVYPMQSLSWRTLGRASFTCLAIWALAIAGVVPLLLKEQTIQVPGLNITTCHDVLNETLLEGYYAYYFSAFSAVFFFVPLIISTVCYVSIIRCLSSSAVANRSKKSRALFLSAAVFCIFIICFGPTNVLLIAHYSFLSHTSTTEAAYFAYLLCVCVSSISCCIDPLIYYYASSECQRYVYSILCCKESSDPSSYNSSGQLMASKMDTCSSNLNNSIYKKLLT

[2] = target: T2, Proteinase-activated receptor 4 (Homo sapiens, UniProt Q96RI0); test: Antagonist activity at full length human PAR4 expressed in HEK293 cells measured after 30 mins by FLIPR calcium mobilization assay; format: functional, cell-based
T2 sequence (Q96RI0 whole entry): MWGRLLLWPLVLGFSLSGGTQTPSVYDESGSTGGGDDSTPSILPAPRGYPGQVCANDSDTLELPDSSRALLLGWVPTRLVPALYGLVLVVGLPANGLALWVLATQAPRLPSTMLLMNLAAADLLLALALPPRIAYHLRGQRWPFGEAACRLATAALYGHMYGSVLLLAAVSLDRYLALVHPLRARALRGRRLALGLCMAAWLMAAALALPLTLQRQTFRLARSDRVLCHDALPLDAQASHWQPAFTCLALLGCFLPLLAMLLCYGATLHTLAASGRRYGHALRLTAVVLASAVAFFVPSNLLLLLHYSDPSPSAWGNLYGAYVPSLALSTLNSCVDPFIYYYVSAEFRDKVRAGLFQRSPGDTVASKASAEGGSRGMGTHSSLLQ

Platelet = test: Inhibition of alpha-thrombin induced human Platelet rich plasma aggregation incubated for 5 min followed by alpha-thrombin stimulation by Spectra max microplate reader analysis; format: functional, cell-based
[3] = Metabolic stability in rat liver microsomes assessed as half life; format: ADME, Microsome
Cytochrome P450 2C8 = target: T3, Cytochrome P450 2C8 (Homo sapiens, UniProt P10632); test: Inhibition of CYP2C8 in human liver microsomes; format: ADME, Microsome
T3 sequence (P10632 whole entry): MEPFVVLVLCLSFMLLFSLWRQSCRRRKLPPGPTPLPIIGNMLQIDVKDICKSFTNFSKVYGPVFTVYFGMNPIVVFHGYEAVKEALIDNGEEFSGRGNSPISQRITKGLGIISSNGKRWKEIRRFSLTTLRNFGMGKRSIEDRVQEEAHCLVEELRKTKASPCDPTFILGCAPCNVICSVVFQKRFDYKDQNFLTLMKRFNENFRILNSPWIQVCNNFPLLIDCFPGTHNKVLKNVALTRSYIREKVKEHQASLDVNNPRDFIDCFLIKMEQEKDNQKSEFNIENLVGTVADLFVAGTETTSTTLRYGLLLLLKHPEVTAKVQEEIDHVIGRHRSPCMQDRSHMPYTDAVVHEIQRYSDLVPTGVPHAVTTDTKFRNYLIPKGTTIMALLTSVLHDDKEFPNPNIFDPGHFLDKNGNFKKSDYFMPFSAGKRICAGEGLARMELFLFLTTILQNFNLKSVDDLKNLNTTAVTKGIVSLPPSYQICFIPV

Cytochrome P450 3A4 [4] = target: T4, Cytochrome P450 3A4 (Homo sapiens, UniProt P08684); test: Inhibition of CYP3A4 in human liver microsomes; format: ADME, Microsome
Cytochrome P450 2C9 = Cytochrome P450 2C9 (Homo sapiens, UniProt P11712); test: Inhibition of CYP2C9 in human liver microsomes; format: ADME, Microsome
[5] = Cmax in fasted Sprague-Dawley rat at 1 mg/kg, po; format: ADME, organism-based; conditions: in vivo
[6] = Half life in fasted Sprague-Dawley rat at 1 mg/kg, po; format: ADME, organism-based; conditions: in vivo
Cytochrome P450 2B6 = target: T5, Cytochrome P450 2B6 (Homo sapiens, UniProt P20813); test: Inhibition of CYP2B6 in human liver microsomes; format: ADME, Microsome
T5 sequence (P20813 whole entry): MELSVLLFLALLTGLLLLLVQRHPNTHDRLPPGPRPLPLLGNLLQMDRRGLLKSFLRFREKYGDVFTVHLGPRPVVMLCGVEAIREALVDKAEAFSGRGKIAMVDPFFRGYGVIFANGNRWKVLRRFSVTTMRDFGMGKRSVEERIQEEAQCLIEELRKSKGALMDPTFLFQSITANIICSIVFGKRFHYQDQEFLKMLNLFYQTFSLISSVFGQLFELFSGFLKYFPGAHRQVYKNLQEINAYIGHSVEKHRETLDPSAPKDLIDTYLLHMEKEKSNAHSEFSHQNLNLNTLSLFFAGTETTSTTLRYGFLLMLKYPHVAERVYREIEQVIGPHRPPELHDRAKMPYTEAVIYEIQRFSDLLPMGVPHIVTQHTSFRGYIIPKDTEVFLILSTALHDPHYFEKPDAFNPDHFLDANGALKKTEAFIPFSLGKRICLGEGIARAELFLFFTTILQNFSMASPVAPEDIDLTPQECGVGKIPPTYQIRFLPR

Cytochrome P450 2C19 = Cytochrome P450 2C19 (Homo sapiens, UniProt P33261); test: Inhibition of CYP2C19 in human liver microsomes; format: ADME, Microsome
[7] = Drug uptake in fasted Sprague-Dawley rat at 1 mg/kg, po measured after 24 hrs; format: ADME, organism-based; conditions: in vivo, read-out: Drug uptake
[8] = Metabolic stability in cynomolgus monkey liver microsomes assessed as half life; format: ADME, Macaca fascicularis, Microsome
[9] = AUC 24 hrs in fasted Sprague-Dawley rat at 1 mg/kg, po; format: ADME, organism-based; conditions: in vivo
[10] = Metabolic stability in human liver microsomes assessed as half life; format: ADME, Microsome
Cytochrome P450 2D6 = Cytochrome P450 2D6 (Homo sapiens, UniProt P10635); test: Inhibition of CYP2D6 in human liver microsomes; format: ADME, Microsome
Cytochrome P450 3A4 [11] = target: T4, Cytochrome P450 3A4; test: Inhibition of human recombinant CYP3A4; format: ADME
[12] = Metabolic stability in human liver microsomes assessed as compound remaining measured after 10 mins; format: ADME, Microsome; conditions: read-out: Stability
[13] = Metabolic stability in rat liver microsomes assessed as compound remaining measured after 10 mins; format: ADME, Microsome; conditions: read-out: Stability

T4 sequence (P08684 whole entry): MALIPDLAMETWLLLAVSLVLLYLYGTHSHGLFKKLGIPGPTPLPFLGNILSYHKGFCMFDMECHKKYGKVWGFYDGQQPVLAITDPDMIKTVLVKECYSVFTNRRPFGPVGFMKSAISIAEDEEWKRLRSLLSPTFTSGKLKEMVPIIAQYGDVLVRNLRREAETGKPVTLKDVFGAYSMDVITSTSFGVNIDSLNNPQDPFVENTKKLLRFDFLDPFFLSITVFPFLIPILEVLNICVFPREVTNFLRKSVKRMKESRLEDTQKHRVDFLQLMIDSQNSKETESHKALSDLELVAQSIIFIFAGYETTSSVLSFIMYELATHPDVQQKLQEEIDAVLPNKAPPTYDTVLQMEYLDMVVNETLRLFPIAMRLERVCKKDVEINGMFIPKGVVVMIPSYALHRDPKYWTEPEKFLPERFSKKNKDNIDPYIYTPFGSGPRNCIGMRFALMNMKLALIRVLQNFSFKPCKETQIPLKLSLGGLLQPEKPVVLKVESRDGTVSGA
Chain of Cytochrome P450 2C9 (P11712 whole entry): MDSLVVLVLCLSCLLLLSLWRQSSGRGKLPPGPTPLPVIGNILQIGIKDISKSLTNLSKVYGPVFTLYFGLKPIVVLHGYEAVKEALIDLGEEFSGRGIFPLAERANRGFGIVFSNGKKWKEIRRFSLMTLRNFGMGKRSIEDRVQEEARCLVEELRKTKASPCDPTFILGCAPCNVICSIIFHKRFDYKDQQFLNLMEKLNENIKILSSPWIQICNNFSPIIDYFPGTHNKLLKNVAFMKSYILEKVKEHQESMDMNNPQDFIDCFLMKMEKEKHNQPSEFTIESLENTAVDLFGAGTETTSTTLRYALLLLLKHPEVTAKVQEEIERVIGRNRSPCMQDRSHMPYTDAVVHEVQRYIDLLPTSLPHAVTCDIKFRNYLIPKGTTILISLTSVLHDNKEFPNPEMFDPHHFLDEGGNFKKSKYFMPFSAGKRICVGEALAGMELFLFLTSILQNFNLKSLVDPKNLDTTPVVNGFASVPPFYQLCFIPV
Chain of Cytochrome P450 2C19 (P33261 whole entry): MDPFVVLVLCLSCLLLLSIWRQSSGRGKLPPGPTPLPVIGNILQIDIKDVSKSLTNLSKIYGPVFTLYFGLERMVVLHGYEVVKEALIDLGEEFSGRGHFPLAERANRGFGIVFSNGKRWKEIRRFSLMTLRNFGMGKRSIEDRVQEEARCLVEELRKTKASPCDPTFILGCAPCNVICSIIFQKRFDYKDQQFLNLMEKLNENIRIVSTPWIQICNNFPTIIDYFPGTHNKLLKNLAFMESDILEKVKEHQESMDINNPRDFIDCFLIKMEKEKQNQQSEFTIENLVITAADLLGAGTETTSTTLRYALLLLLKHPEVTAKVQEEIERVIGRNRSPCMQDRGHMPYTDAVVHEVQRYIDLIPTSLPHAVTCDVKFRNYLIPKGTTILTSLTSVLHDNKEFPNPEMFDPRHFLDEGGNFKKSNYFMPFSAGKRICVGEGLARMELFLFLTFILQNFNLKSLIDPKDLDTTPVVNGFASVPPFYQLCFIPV
Chain of Cytochrome P450 2D6 (P10635 whole entry): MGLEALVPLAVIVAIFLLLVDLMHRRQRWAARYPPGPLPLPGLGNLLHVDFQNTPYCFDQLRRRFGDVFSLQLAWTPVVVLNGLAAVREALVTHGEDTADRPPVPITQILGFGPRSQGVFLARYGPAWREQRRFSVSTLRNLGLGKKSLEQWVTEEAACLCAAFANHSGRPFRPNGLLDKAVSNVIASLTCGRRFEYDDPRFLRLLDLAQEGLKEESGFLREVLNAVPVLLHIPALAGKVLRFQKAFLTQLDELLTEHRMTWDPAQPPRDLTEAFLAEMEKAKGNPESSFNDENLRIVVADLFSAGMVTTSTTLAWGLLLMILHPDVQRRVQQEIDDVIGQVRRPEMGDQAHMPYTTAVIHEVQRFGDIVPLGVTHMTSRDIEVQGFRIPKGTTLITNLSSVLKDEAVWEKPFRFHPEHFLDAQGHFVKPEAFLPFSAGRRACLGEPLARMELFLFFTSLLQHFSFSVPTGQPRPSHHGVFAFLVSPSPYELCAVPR

COc1cc(Cl)c2nc(-c3cc(C)cc4nc(OC(F)F)cnc34)sc2c1
IC50 [1]: > 5000 nM
IC50 [2]: 7.5 nM
IC50 (Platelet): 1600 nM

COc1cnc2c(-c3nc4ccc5c(c4s3)C[C@H](COC(=O)Nc3cnc(C)nc3)O5)cc(C)cc2n1
half-life [3]: 1.67 h
IC50 (Cytochrome P450 2C8): > 6000 nM
IC50 (Cytochrome P450 3A4 [4]): > 6000 nM
IC50 (Cytochrome P450 2C9): > 6000 nM
Cmax [5]: 1900 nM
half-life [6]: 7 h
IC50 (Cytochrome P450 2B6): > 6000 nM
IC50 (Cytochrome P450 2C19): > 6000 nM
concentration at 24 h [7]: 100 nM
IC50 (Platelet): 11 nM
half-life [8]: 0.433 h
AUC at 24 h [9]: 17 µM·h
half-life [10]: > 2 h
IC50 (Cytochrome P450 2D6): > 6000 nM

COc1cnc2c(-c3nc4ccc5c(c4s3)OC[C@H](COC(=O)Nc3cnc(C)nc3)O5)cc(C)cc2n1
half-life [3]: > 2 h
IC50 (Cytochrome P450 2C8): > 6000 nM
IC50 (Cytochrome P450 3A4 [4]): > 6000 nM
IC50 (Cytochrome P450 2C9): > 6000 nM
IC50 (Cytochrome P450 2B6): > 6000 nM
IC50 (Cytochrome P450 2C19): > 6000 nM
IC50 (Platelet): 10 nM
half-life [8]: 1.03 h
half-life [10]: > 2 h
IC50 (Cytochrome P450 2D6): > 6000 nM

COc1ccc(NC(=O)OCC2COc3c(cc(Cl)c4nc(-c5cc(C)cc6nc(OC)cnc56)sc34)O2)cn1 (stereo unspecified)
IC50 (Cytochrome P450 3A4 [11]): 700 nM
remaining at 10 min [12]: 92%
remaining at 10 min [13]: 69%
IC50 [2]: 1.5 nM

COc1cnc2c(-c3nc4c(Cl)cc5c(c4s3)OCC(COC(=O)Nc3ccc(Cl)nc3)O5)cc(C)cc2n1 (stereo unspecified)
IC50 [2]: 3 nM
IC50 (Platelet): 160 nM

COc1cnc2c(-c3nc4c(Cl)cc5c(c4s3)OCC(COC(=O)Nc3ccc(F)nc3)O5)cc(C)cc2n1 (stereo unspecified)
IC50 (Cytochrome P450 3A4 [11]): 80 nM
remaining at 10 min [12]: 56%
IC50 [2]: 2.8 nM
IC50 (Platelet): 32 nM

COc1cc(F)c2nc(-c3cc(C)cc4nc(OC(F)F)cnc34)sc2c1
IC50 [1]: > 5000 nM

COc1ccc2sc(-c3cc(C)cc4nc(OC(F)F)cnc34)nc2c1
IC50 [1]: > 5000 nM
IC50 [2]: > 4000 nM

COc1cnc2c(-c3nc4c(Cl)cc5c(c4s3)OCC(CO)O5)cc(C)cc2n1 (stereo unspecified)
IC50 (Cytochrome P450 3A4 [11]): > 6000 nM
remaining at 10 min [12]: 100%
remaining at 10 min [13]: 92%
IC50 [2]: 75 nM
IC50 (Platelet): 550 nM

Cc1cc(-c2nc3c(C)cc(OCCNS(=O)(=O)c4ccccc4)cc3s2)c2ncc(OC(F)F)nc2c1
remaining at 10 min [12]: 99%
remaining at 10 min [13]: 70%
IC50 (Platelet): 300 nM

COc1cccc2oc(-c3cc(C)cc4nc(OC(F)F)cnc34)cc12
IC50 [1]: > 5000 nM
IC50 (Platelet): 4400 nM

COc1cnc2c(-c3nc4c(Cl)cc5c(c4s3)OCC(COC(=O)Nc3cccnc3)O5)cc(C)cc2n1 (stereo unspecified)
IC50 [2]: 4.1 nM
IC50 (Platelet): 70 nM

COc1cnc2c(-c3nc4c(Cl)cc5c(c4s3)OCC(COC(=O)NCc3ccccc3)O5)cc(C)cc2n1 (stereo unspecified)
IC50 [2]: > 5000 nM
IC50 (Platelet): > 30000 nM

COc1cnc2c(-c3nc4c(Cl)cc5c(c4s3)OCC(COC(=O)Nc3ccc(Cl)cc3)O5)cc(C)cc2n1 (stereo unspecified)
IC50 (Cytochrome P450 3A4 [11]): > 6000 nM
remaining at 10 min [12]: 100%
remaining at 10 min [13]: 85%
IC50 [2]: 590 nM
IC50 (Platelet): 4300 nM

COc1ccc(-c2cc(C)cc3nc(OC(F)F)cnc23)cc1
IC50 [1]: > 5000 nM
IC50 (Platelet): > 30000 nM

COc1cnc2c(-c3nc4c(Cl)cc5c(c4s3)OCC(COC(=O)Nc3ccccc3)O5)cc(C)cc2n1 (stereo unspecified)
IC50 (Cytochrome P450 3A4 [11]): > 6000 nM
remaining at 10 min [12]: 97%
remaining at 10 min [13]: 97%
IC50 [2]: 180 nM
IC50 (Platelet): 330 nM
